What was measured:
Hmgsc2 mRNA = Hmgsc2 mRNA in bortezomib resistant cells; format: cell-based; settings: vs control shRNA
Description: As shown in the data the control levels of Hmgsc2 are quite high in the control and low in the other samples.
The effects of Hmgsc2 expression in bortezomib resistant cells was examined to determine if Hmgsc2 would be a good therapeutic target for the treatment of NF-kB regulated lung cancers. […] As shown in the data the control levels of Hmgsc2 are quite high in the control and low in the other samples.

NF-κB target genes = test: Quantitative PCR of NF-κB target genes in KP cells; format: cell-based, mouse
Procedure: (§1) FIG. 1. Bortezomib inhibits NF-κB signaling and induces apoptosis in murine lung adenocarcinoma cell lines. (1A) reduction of nuclear p65 level by bortezomib. Two KP (KrasLSL-G12D/wt;p53flox/flox) cell lines (KP1 and KP2) were treated with 5 nM bortezomib (BZ) or vehicle control (ctrl) for 24 hours. Nuclear (N) and cytoplasmic (C) fractions of protein lysates were immunoblotted with the indicated antibodies. NEMO and Parp serve as cytoplasmic and nuclear loading controls, respectively. (1B) quantitative PCR analysis of a subset of NF-κB target genes in 5 nM bortezomib (BZ)-treated KP cells at the indicated time points. Vehicle control is set to 1. (1C) apoptosis in KP and KP^M (KrasLSL-G12D/wt;p53R127H/−) cells induced by bortezomib. Cells were pre-treated with 5 nM bortezomib for 24 hours, and protein lysates were immunoblotted with CC3 and tubulin antibodies. (1D) quantification of cell death in bortezomib-treated cells. Cells were treated with the indicated concentrations of bortezomib for 24 hours, and dead cells were quantified by Trypan blue staining. Error bars are SD (n=3).
(§2) FIG. 7: The NF-κB inhibitor Bay-117082 leads to lung tumor regression in vivo. (7A) quantitative PCR analysis of NF-κB target gene expression in KP cells treated with 10 μM Bay-117082 for indicated hours. Error bars are SD (n=3). (7B) Bay-117082 treatment leads to lung tumor regression and delays tumor progression in the orthotopic lung tumor model. A total of 50,000 luciferase-tagged KP cells were transplanted into recipient mice (n=6), and treatment was started at 19 days after transplantation (set at D0). Mice were treated with vehicle control or 10 mg/kg Bay-117082 by i.p. injection, and imaged at the indicated time points. Arrows indicate Bay-117082 injections. (7C) Bay-117082 prolongs survival in the KP model (n=6; P=0.008). “i.p. dosing” indicates treatment with 3 doses per week.
RNA was purified using TRIzol (Invitrogen), according to the manufacturer's instructions. One microgram of RNA was reverse transcribed using the High-Capacity cDNA Reverse Transcription Kit (Applied Biosystems). Real-time PCR (quantitative PCR) amplification was performed using Taqman probes (Applied Biosystems). Data were normalized to the Gapdh (mouse) or GAPDH (human) levels.

KP and KP^M cells = test: Cleaved caspase 3 (CC3) immunoblot in lung adenocarcinoma cells; format: cell-based, mouse; settings: KP cell lines, 10IJM Bay-117082, 48 hours
Procedure: as §1
FIG. 17: Bay-117082 induces cell death In KP cells. […] (17B) Bay-117082 induces apoptosis in KP cells. Cells were treated with 10IJM Bay-117082 for 48 hours. Protein lysates were immunoblotted with cleaved caspase 3 (CC3) and Tubulin antibodies.
Cell pellets were lysed in Laemmli buffer. […]

KP and KP^M cell lines = test: Cell viability assay (Cell Titer Aqueous Kit); format: cell-based, mouse; settings: KP cell lines, increasing doses of Bay-117082, 48 hours
Procedure: FIG. 2: Bortezomib sensitivity correlates with basal NF-κB activity in KP lung adenocarcinoma cell lines. […] 3TZ, diamond; LKR13, triangle; KP, solid lines; KPM, dashed lines. Error bars are SD (n=3). (2B) lung cancer cell lines with high basal NF-κB activity were sensitive to bortezomib. NF-κB p65 DNA-binding activity was determined by ELISA from nuclear extracts of KP cell lines and LKR13 cells (set as 1). Relative viability was measured after 5 nM bortezomib treatment, as in 2A. FIG. 17: Bay-117082 induces cell death In KP cells. […] (17B) Bay-117082 induces apoptosis in KP cells. Cells were treated with 10IJM Bay-117082 for 48 hours. […] Cell culture conditions were as described recently (30).

KP mice = test: Kaplan-Meier survival of KP mice; format: in vivo, mouse; settings: KP mice 8 weeks post Adeno-Cre, Bay-117082 10 mg/kg i.p. 3 times per week for 4 weeks; control 79.0±13.2 days; P=0.008
Procedure: (5A and 5B) Kaplan-Meier survival curve of vehicle control and bortezomib-treated KP (5A) and K (5B) mice. Arrows indicate weekly 1 mg/kg bortezomib regimen. […] Arrows indicate bortezomib injection.
To initiate lung tumors, cohorts of K or KP mice of 129svJae background were infected with 2.5×10^7 plaque-forming units of Adeno-Cre (University of Iowa) by intranasal inhalation, as described previously (2, 28). Mice were given bortezomib (LC Labs) in PBS [0.5% dimethylsulfoxide (DMSO)] at 1 mg/kg body weight i.v., as indicated.
To analyze the long-term effects of bortezomib therapy, we investigated whether a 4-dose regimen of bortezomib (19) could prolong survival of tumor-bearing mice. Using a cohort of KP mice, we treated tumor-bearing animals 8 weeks after Adeno-Cre infection with bortezomib once a week for 4 weeks (FIG. 10A).

[1] = test system: luciferase-tagged KP cells transplanted into immunocompetent recipient mice; test: Orthotopic lung tumor model, survival and bioluminescence imaging; format: in vivo, mouse
Description: FIG. 6: Imaging bortezomib response and resistance in an orthotopic lung tumor model. (6A) experimental design. Lung cancer cells derived from KP tumors were infected with a retrovirus expressing luciferase and transplanted into immunocompetent recipient mice by tail vein injection. (6B) Kaplan-Meier survival curve of control and bortezomib-treated recipient mice (n=6; P=1.4×10−5). A total of 10,000 cells were transplanted, and treatment started after 35 days. (6C) representative bioluminescence imaging of recipient mice (n=6) treated with vehicle control or bortezomib, as in 6B. D0 refers to the first treatment. Arrows indicate weekly bortezomib regimen.
as §2
At indicated time points, mice were scanned for 15 min under isoflurane anesthesia, using a small animal eXplore Locus microCT (GE Healthcare) at 45-μm resolution, 80 kV, with 450-mA current (47). Images were acquired and processed using GE eXplore software. Bioluminescence imaging was performed as previously described (48). Mice were imaged for 60 seconds, and signals in the lung were quantified using Xenogen software.
To facilitate imaging of the bortezomib treatment response, we adapted a transplantation-based orthotopic lung cancer mouse model (37). As outlined in FIG. 6A, we infected KP cell lines with a retrovirus expressing firefly luciferase. The cells were transplanted into immunocompetent recipient mice by i.v. injection, resulting in the development of in situ lung tumors that could be imaged and quantified by bioluminescence imaging.
To determine whether bortezomib therapy was effective in the orthotopic model, we transplanted 10,000 KP cells into host mice and treated the mice 5 weeks later, either with control or with a weekly 4-dose regimen of bortezomib (37).

IKK kinase activity = settings: cited from earlier work
[2] = test system: stress-activated protein kinases, p38 and JNK-1; settings: cited from earlier work

Compound	relative amount of Hmgsc2 mRNA (Hmgsc2 mRNA)	Xiap inhibition, Bay-117082 compared with bortezomib (NF-κB target genes; KP cells in vitro, FIG. 1B and FIG. 7A)	expression of prosurvival NF-κB target genes such as Bcl2, Bclx1, Xiap (NF-κB target genes; KP cells, 10 μM Bay-117082, indicated hours)	caspase 3 cleavage (KP and KP^M cells)	cell death (relative cell viability) (KP and KP^M cell lines)	survival (KP mice)	lung tumor signal in the initial phase ([1]; 50,000 luciferase-tagged KP cells, 10 mg/kg Bay-117082 i.p., 0-9 days)	lung tumor progression ([1]; orthotopic model, 10 mg/kg Bay-117082 i.p.)	tumor response under continuous treatment ([1]; orthotopic model, 42-63 days)	IKK kinase activity (IKK kinase activity)	effect on stress-activated protein kinases p38 and JNK-1 [2]
insulin: positive control; represses Hmgcs2	low										
Cc1ccc(S(=O)(=O)/C=C/C#N)cc1 [Bay-117082]		stronger	downregulates	induced caspase 3 cleavage	cell death	120.2 ± 27.0 days	significantly reduced lung tumor signal	delayed lung tumor progression until 42 days	eventually became refractory to therapy	inhibits	stimulate
